In US20240224993A1, “ANTIMICROBIAL COMPOSITIONS” (GOJO Industries, Inc., priority 2009, published 2024):

Key:
S. marcescens #14756 = experiment: ASTM E 2315 time-kill procedure, S. marcescens; type: cell-based; conditions: contact time 15 seconds
Protocol: (§1) In vitro efficacy of these compositions was measured against E. coli, S. aureus, E. faecium, S. marcescens, S. aureus (MRSA), P. mirabilis, K. pneumoniae, and S. epidermidis. The test was conducted according to the ASTM E 2315 method, “Standard Guide for Assessment of Antimicrobial Activity Using a Time-Kill Procedure.” Contact time was 15 seconds.
(§2) In vitro efficacy of these compositions was measured against S. marcescen, and S. aureus. The test was conducted according to the ASTM E 2315 method, “Standard Guide for Assessment of Antimicrobial Activity Using a Time-Kill Procedure.” Contact time was 15 seconds.

S. aureus #6538 = experiment: ASTM E 2315 time-kill procedure, S. aureus; type: cell-based; conditions: contact time 15 seconds
Protocol: as §1, §2

[1] = 0.5 wt. % diol, 0 wt. % ethanol
[2] = 0.5 wt. % diol, 15 wt. % ethanol
[3] = 0.5 wt. % diol, 30 wt. % ethanol
[4] = 1.0 wt. % diol, 0 wt. % ethanol
[5] = 1.0 wt. % diol, 15 wt. % ethanol
[6] = 1.0 wt. % diol, 30 wt. % ethanol

SMILES: CCCCCCC(O)CO (centres unmarked) [1,2-octanediol]
- Log Reduction-S. marcescens #14756 (S. marcescens #14756; [1]): 0.3 log
- Log Reduction-S. marcescens #14756 (S. marcescens #14756; [2]): 0.1 log
- Log Reduction-S. marcescens #14756 (S. marcescens #14756; [3]): >5.1 log
- Log Reduction-S. marcescens #14756 (S. marcescens #14756; [4]): 3.5 log
- Log Reduction-S. marcescens #14756 (S. marcescens #14756; [5]): 2.3 log
- Log Reduction-S. marcescens #14756 (S. marcescens #14756; [6]): >5.1 log
- Log Reduction-S. aureus #6538 (S. aureus #6538; [1]): 0 log
- Log Reduction-S. aureus #6538 (S. aureus #6538; [2]): 0.2 log
- Log Reduction-S. aureus #6538 (S. aureus #6538; [3]): 0.1 log
- Log Reduction-S. aureus #6538 (S. aureus #6538; [4]): 0.2 log
- Log Reduction-S. aureus #6538 (S. aureus #6538; [5]): 2.6 log
- Log Reduction-S. aureus #6538 (S. aureus #6538; [6]): 0.9 log

SMILES: CCO [ethanol]
- Log Reduction-S. marcescens #14756 (S. marcescens #14756; 0 wt. % diol, 30 wt. % ethanol): 0.45 log
- Log Reduction-S. aureus #6538 (S. aureus #6538; 0 wt. % diol, 30 wt. % ethanol): 0 log
